Laboratory results reported in patent US20070202079A1, “Therapeutic compositions and methods useful in modulating protein tyrosine phosphatases” (priority 2006, published 2007).

Key:
Flag-PRL-3 = biological target: T1, Flag-PRL-3 (Homo sapiens, UniProt O75365); experiment: immunocomplex PTPase assay, NIH3T3 Flag-PRL-3 transfectants; assay type: cell-based, mouse; conditions: cells treated 5 min
T1 construct: expressed in transfected cells; host or cells: NIH3T3 (pBabepuro, puromycin-selected)
Description: Immunocomplex PTPase assays were performed to assess the effects of sodium stibogluconate on intracellular PTPases. Cells were untreated or treated with sodium stibogluconate for 5 minutes, washed with fresh medium and then lysed in cold lysis buffer (50 mM Tris, pH 7.4; 150 mM NaCl; 1% NP40; 2 mM PMSF; 20 μg/ml of Aprotinin). The lysates were incubated with an anti-Flag antibody in immunoprecipitation assays. The immunocomplexes were collected with protein G sepharose beads (Pharmacia) and washed in cold lysis buffer for 4 times. […] C. for 18 hrs. 100 μL of malachite green solution (UBI) was added to each reaction prior to measurement of OD660 to quantify the amounts of free phosphate cleaved by the PTPases from the peptide substrate (Pathak et al., J. Immunol. 167, 3391 (2001)). The remaining 10% contents of individual samples were analyzed by SDS-PAGE/Western blotting to quantify the relative amounts of the phosphatase proteins. […]
The effects of sodium stibogluconate on intracellular PTPases were assessed using NIH3T3 or WM9 transfectants. […]

PTP1B = biological target: T2, PTP1B (Homo sapiens, UniProt P18031); experiment: in vitro PTPase assay, GST/PTP1B; assay type: biochemical
T2 construct: purchased Upstate Biotechnology Inc. (Lake Placid, N.Y.)
Description: In vitro PTPase activities were measured using the commercial protein tyrosine phosphatase assay kit (Upstate Biotechnology, Inc. (“UBI”)) following established procedure known to one of skill in the art. This assay measures the in vitro dephosphorylation of a synthetic phosphotyrosine peptide of the sequence Arg-Arg-Leu-Ile-Glu-Asp-Ala-Gle-T- -yr-Ala-Ala-Arg-Gly, wherein the tyrosine is phosphorylated (SEQ ID NO: 3). Briefly, 0.01 μg of GST/PTPase fusion proteins was incubated in 50 μl of Tris buffer (10 mM Tris, pH 7.4) containing different concentrations of inhibitors or chemicals (0-1,000 μg/ml) at 22° C. for 10 minutes, followed by addition of 0.2 mM of the phosphotyrosine peptide and incubation at 22° C. for 18 hours. 100 μl of Malachite Green solution was added and incubated for 5 minutes, and the absorbance at 660 nm was measured after 5 minutes.
In vitro PTPase assays were used to determine the effects of levamisole (Sigma), pentamidine (American Pharmaceutical Partners, Inc.), and ketoconazole (Sigma) on recombinant PTPases, following established procedures (Pathak et al., J. Immunol. 167, 3391 (2001); Pathak et al., Leukemia 16, 2285 (2002), Yi et al., J. Immunol. 169, 5978 (2002)) using a synthetic phosphotyrosine peptide or DiFMUP as the substrate as detailed above in section I.A.2.

DU145 cells = experiment: DU145 cell growth, MTT; assay type: cell-based, human
Description: For cell proliferation assays, cells were grown in 10% FCS culture medium containing various amounts of IFNs and/or sodium stibogluconate in 96 well plates and cultured at 37° C. for 3 or 6 days as indicated. The numbers of viable cells in proliferation assays were determined by MTT assays as described in Phatak et al., J. Immunol. 167, 3391 (2001).
(§1) NIH3T3 (Yi, et al., Blood 85, 87 (1995)), WM9 (Forsberg, et al., Proc. Nat. Acad Sci. USA 90, 393 (1993)), DU145 (Mickey, et al., Cancer Res. 37, 4049 (1977)), LoVo (Drewinko, et al., Cancer Res. 36, 467 (1976)), HEY (Buick, et al., Cancer Res. 45, 3668 (1985)), U251 (Yoshida, et al., Cancer 50, 410 (1982)), A549 (Giard, et al., J. Natl. Cancer Inst. 51, 1417 (1973)) and SK-N-SH (Helson, et al., Cancer Res. 35, 2594 (1975)) cell lines have been described and were cultured in RPMI 1640 supplemented with 10% fetal calf serum (FCS). For measurement of sodium stibogluconate effects on cell growth in vitro, cells were cultured in the absence (−) or presence (+) of various amounts of sodium stibogluconate for 6 days with viable cells quantified by MTT assays (Mosmann, J. Immunol. Methods 65, 55 (1983)). Percentages of growth inhibition by sodium stibogluconate were calculated (.+−.x%).

Jurkat cells = experiment: IFN-gamma secretion by Jurkat cells, ELISA; assay type: cell-based, human; conditions: 16 hours
Description: Jurkat cells were cultured in the absence or presence of various amounts of SSG for 16 hours. The cells and culture medium supernatants were separated by centrifugation (1,000 g, 10 min). The amounts of IFN-gamma in the culture medium supernatants were quantified using an ELISA kit (R.D. system, Minneapolis, Minn.) following the manufacturer's protocol.

SK-N-SH = SK-N-SH cell growth, MTT; assay type: cell-based, human; conditions: 100 μg/ml, day 6
Description: as §1

[1] = test system: IFNγ+ cells in human peripheral blood; experiment: ELISPOT assays of peripheral blood treated in vitro; assay type: cell-based; conditions: comparable conditions

T2 sequence (P18031 whole entry, species assumed): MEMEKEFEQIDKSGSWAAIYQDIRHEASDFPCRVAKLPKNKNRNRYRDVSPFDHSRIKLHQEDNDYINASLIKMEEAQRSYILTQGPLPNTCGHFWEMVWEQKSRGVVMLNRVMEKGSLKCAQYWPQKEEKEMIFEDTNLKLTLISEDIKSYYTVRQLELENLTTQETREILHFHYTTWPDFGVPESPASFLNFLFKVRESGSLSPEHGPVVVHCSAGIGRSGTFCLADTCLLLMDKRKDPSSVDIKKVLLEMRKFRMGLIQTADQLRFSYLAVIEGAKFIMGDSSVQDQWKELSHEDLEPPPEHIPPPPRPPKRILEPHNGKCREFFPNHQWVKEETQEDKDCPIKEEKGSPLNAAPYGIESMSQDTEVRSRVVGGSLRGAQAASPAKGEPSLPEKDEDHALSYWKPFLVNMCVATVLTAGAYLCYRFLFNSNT
T1 sequence (O75365 whole entry): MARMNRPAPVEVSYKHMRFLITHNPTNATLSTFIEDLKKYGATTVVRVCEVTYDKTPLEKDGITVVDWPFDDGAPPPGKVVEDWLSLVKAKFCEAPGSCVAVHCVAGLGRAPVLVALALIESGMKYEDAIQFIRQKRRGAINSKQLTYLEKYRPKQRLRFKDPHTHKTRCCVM

With `O.O.O.O.O.O.O.O.O.O=C([O-])[C@@H]1[O][Sb]2([O-])([O][Sb]34([OH])[O][C@H]([C@H](O)CO)[C@H]([O]3)[C@H](C(=O)[O-])[O]4)[O][C@H]([C@H](O)CO)[C@@H]1[O]2.[Na+].[Na+].[Na+]` [sodium stibogluconate] the “PTPase activity of immunocomplexes from treated Flag-PRL-3 transfectants” value (Flag-PRL-3) was “lack of PTPase activity”, the “inhibition of PTP1B compared with the three drugs” value (PTP1B) was “only modestly effective” and the “DU145 cells, single agent” value (DU145 cells; 50 μg/ml and 100 μg/ml, day 6 culture) was “killed all cells”. The “cell killing of DU145” value (DU145 cells; 100 μg/ml, day 6) was “near-complete cell killing”, the IFN-gamma secretion (Jurkat cells) was “increased amounts of IFN-gamma” and the “cell killing of SK-N-SH” value (SK-N-SH) was “near-complete cell killing”. For the same molecule, the “cells expressing TH2 cytokine IL-5” value [1] was “not induced”.
